Assay [1] relates to parental and homozygous normal plants. Description: Foliar spray whole plant test. The format is in vivo, Nicotiana tabacum. As to conditions: 5 mL spray. How it is done:
(§1) Further studies of the effect of the S4 mutation on whole plant response to chlorsulfuron were conducted with plants of the parental variety and progeny of homozygous mutant and homozygous normal isolates (Nos. 16 and 1, respectively) of the previously described backcross program. Accordingly, plants of the latter two types were derived, but separated by four generations, from the initial S4 mutant plant regenerated from callus culture.
(§2) Plants at the 4-5 leaf stage were treated with foliar sprays of an aqueous solution containing 10% (v/v) acetone, 0.2% polyoxyethylene sorbitan monolaurate (Tween 20 ), and 1,3, 10, 30 or 100 ppm chlorsulfuron. Each plant received 5 mL of a spray solution. Two weeks after treatment, plants were evaluated for phytotoxicity and shoot heights were measured. […] At this lowest level of application, apical buds and youngest leaves of these sensitive plants were chlorotic. […] These symptoms were more pronounced with increasing chlorsulfuron concentrations. […] In contrast, homozygous mutant plants were unaffected by treatment with chlorsulfuron, even at the highest test concentration of 100 ppm.

Assay [2] relates to homozygous mutant (S4) plants. In words: Foliar spray whole plant test. In kind it is in vivo, Nicotiana tabacum. How it is done:
as §1, §2

Assay [3] concerns the target T1, acetolactate synthase (ALS), H1 extract (Nicotiana tabacum, UniProt P09114).
T1 construct: ALS activity was then assayed in extracts prepared from these cell suspension cultures; endogenous in cells; host or cells: N. tabacum cv; Xanthi cell suspension cultures (H1 parental haploid line; +/+ segregants), 0-50% ammonium sulfate fraction of the extract
T1 sequence (P09114 92-664): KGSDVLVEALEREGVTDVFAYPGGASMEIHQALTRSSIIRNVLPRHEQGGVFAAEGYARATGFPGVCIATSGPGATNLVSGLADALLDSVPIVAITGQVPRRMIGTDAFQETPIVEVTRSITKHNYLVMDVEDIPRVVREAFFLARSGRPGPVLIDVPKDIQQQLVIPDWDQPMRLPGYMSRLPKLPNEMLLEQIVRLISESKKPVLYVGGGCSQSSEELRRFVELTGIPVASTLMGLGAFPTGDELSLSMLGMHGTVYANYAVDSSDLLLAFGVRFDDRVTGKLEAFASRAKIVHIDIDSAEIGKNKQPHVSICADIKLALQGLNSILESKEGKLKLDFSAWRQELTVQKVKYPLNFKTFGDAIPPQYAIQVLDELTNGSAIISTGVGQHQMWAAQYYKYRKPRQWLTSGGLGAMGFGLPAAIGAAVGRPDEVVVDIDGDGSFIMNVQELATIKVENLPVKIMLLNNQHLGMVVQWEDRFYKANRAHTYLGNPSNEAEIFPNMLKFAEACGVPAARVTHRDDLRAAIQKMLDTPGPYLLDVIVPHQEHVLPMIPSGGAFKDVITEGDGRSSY
In words: ALS activity assay in cell extracts. The format is biochemical. How it is done:
Cell suspension cultures of normal (H1) and homozygous mutant (Isolate 16) cell lines were washed in C1 liquid medium. After washing, cells were extracted in a 100 mM potassium phosphate buffer (pH 7.5) containing 0.5 mM MgCl2, 1 mM sodium pyruvate, 0.5 mM thiamine pyrophosphate, 10 micromolar flavine-adenine dinucleotide (FAD) and 10 percent (by volume) glycerol. Polyclar AT (BDH Chemicals Ltd) was added to a final concentration of 250 mg per gram fresh weight of tissue. After centrifugation at 27,000xg for 15 minutes at 4°, an equal volume of a saturated solution of amminium sulfate was added to the supernatant fraction. The resultant precipitate (representing a 0 to 50 percent ammonium sulfate fraction) was redissolved in 100 mM potassium phosphate buffer (pH 7.5) containing 0.5 mM MgCl2, 1 mM sodium pyruvate, and salts were removed by passage through a Sephadex G-25 (Pharmacia PD-10) column.
ALS activity was assayed in a total volume of 500 microliters containing 100 microliters of the column eluate, 65 mM potassium phosphate buffer (pH 7.5) containing 10 mM MgCl2, 40 mM sodium pyruvate, 250 micromolar thiamine pyrophosphate, 23 micromolar FAD, and 1, 5, 10, 50, 100, 500 or 1000 ppb chlorsulfuron or sulfometuron-methyl. After incubation at 30° for 90 minutes, 250 microliters of 6N H2 SO4 was added to each assay tube, and the tubes were incubated at 55° for 10 minutes to terminate the enzymatic reaction and achieve complete conversion of acetolactate to acetoin. Acetoin content was then measured by a modification of the procedure described by Westerfield, J. Biol. Chem. 161:495 (1945). To each tube was added sequentially 100 microliters 50 percent NaOH, 150 microliters 0.5 percent creatine, and 150 microliters 5 percent alpha-napthol (in 2.5N NaOH). Color development was accelerated by incubation at 55° for 10 minutes. Tubes were then centrifuged, and the optical density was read at 530 nm. Background optical densities, which were subtracted from the optical density values of the reactions, were determined for each extract from parallel assays to which the enzyme extract was added after the addition of 6N H2 SO4. Protein concentrations were measured with Bio-Rad Protein Assay reagent with bovine serum albumin as a standard. Data points and specific activities, which are set forth below and in FIG. 2, represent the average values of at least three independent determinations. ALS activities are presented in FIG. 2 as percent activity in the absence of herbicide.

With `COc1nc(C)nc(NC(=O)NS(=O)(=O)c2ccccc2Cl)n1` [Chlorsulfuron, chlorsulfuron], the “phytotoxicity two weeks after foliar spray” value in assay [1] (1 ppm chlorsulfuron, 4-5 leaf stage) is “developed symptoms of phytotoxicity”; in assay [1] (3 ppm chlorsulfuron) it was “chlorosis was more severe and growth retardation readily apparent”; in assay [1] (100 ppm chlorsulfuron), “extreme growth inhibition, chlorosis, and necrosis”; in assay [2] (up to highest test concentration of 100 ppm chlorsulfuron), “unaffected”. Moreover, in assay [2] (homozygous state), the “increase of resistance of plants by S4 mutation” value is given as “at least 100 fold”. For the same compound, the remaining ALS activity (% of uninhibited) at 0.01 ppm in assay [3] (10 ppb, Isolate H1 (+), read-out: Uninhibited activity (%) in the Presence of Chlorsulfuron) came to 40%. Further, the remaining ALS activity (% of uninhibited) at 0.03 ppm in assay [3] (30 ppb, Isolate H1 (+), read-out: Uninhibited activity (%) in the Presence of Chlorsulfuron) was 23%. Also, the remaining ALS activity (% of uninhibited) at 0.1 ppm in assay [3] (100 ppb, Isolate H1 (+), read-out: Uninhibited activity (%) in the Presence of Chlorsulfuron) was 18%. Further, in assay [3] (H1 cell line extract, read-out: concentration inhibiting ALS activity 50 percent (converted)), the IC50 was around 0.014 µM.

Source of the values: US4774381A, “Herbicide resistant tobacco” (E. I. Du Pont de Nemours and Company, priority 1985, dated 1988).
